{"source": "paper PMC9132363", "about": "(Journal of Medicinal Chemistry, 2022)", "key": {"[1]": {"experiment": "DPPH radical scavenging assay", "format": "physicochemical", "experimental": "The antioxidant activity was determined by the 2,2-diphenyl-1-picrylhydrazyl hydrate (DPPH) assay.[65]−[67] All the measurements were performed in an 80% MeOH solution, with the final reaction volume being 3 mL. A stock of DPPH solution in DMSO (10^–2 M) was prepared and stored at −20 °C, and the same procedure was performed with the antioxidant solution. Then, the DPPH stock solution was diluted to 2 mL with a final concentration of 150 μM (final volume of 3 mL and final concentration of 100 μM). The antioxidant stock was sequentially diluted to 1 mL at 3, 9, 30, 90, and 300 μM (final volume of 3 mL and final concentrations of 1, 3, 10, 30, and 100 μM). The mixture was incubated at room temperature for 30 min. Once this time had passed, the absorbance was measured in a spectrophotometer at 517 nm. Trolox, caffeic acid, and ferulic acid were used as a standard (1, 3, 10, 30, and 100 μM final concentrations). A blank using 80% MeOH solution instead of the corresponding antioxidant was used in each assay. Two independent measurements of each sample were performed. Data were processed using Origin software, and sigmoidal fitting according to the DoseResp function was performed to extrapolate the IC50 (μM) of each antioxidant."}, "KEAP1": {"biological_target": "KEAP1 (Homo sapiens, UniProt Q14145)", "sequence (Q14145 whole entry)": "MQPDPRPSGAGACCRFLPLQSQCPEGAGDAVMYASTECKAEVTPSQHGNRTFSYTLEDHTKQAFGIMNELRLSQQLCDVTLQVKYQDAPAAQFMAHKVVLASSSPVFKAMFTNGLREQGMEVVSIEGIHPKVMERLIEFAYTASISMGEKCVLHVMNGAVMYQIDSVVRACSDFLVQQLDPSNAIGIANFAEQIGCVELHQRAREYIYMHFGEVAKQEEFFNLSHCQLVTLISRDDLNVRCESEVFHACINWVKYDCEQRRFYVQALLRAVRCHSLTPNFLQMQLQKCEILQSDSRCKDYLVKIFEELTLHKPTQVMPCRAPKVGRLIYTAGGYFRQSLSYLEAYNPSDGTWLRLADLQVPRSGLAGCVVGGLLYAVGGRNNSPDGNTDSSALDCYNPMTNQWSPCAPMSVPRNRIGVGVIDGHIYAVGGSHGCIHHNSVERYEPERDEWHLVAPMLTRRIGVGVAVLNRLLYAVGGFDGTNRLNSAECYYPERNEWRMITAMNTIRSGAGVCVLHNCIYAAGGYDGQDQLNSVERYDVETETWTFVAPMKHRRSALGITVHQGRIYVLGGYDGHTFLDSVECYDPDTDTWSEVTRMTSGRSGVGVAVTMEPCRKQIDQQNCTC", "experiment": "Differential scanning fluorimetry (DSF) assay", "format": "binding", "conditions": "100 μM; difference from KEAP1 alone (Ti 61.3 °C)"}, "NRF2": {"test_system": "NRF2", "experiment": "3×ARE-LUC luciferase reporter assay", "format": "cell-based, human", "experimental": "Transient transfections of HEK293T cells were performed with the expression vectors for TK-Renilla (Promega, Madison, […]) and the expression vector ARE-LUC (Dr. J. Alam, Dept. of Molecular Genetics, Ochsner Clinic Foundation, New Orleans, LA). Cells were seeded on 24-well plates (75,000 cells per well), cultured for 16 h, and transfected using calcium phosphate. Eight hours after transfections, cells were treated with 3 different concentrations of the compounds (6, 20, and 60 μM). […] After 16 h, the cells were lysed and assayed with a dual-luciferase assay system (Promega) according to the manufacturer’s instructions. Relative light units were measured in a GloMax 96 microplate luminometer with dual injectors (Promega)."}, "ROCK-II (ROKa)": {"biological_target": "ROCK-II (ROKa) (Rattus norvegicus, UniProt Q62868)", "sequence (Q62868 2-543 limits assumed)": "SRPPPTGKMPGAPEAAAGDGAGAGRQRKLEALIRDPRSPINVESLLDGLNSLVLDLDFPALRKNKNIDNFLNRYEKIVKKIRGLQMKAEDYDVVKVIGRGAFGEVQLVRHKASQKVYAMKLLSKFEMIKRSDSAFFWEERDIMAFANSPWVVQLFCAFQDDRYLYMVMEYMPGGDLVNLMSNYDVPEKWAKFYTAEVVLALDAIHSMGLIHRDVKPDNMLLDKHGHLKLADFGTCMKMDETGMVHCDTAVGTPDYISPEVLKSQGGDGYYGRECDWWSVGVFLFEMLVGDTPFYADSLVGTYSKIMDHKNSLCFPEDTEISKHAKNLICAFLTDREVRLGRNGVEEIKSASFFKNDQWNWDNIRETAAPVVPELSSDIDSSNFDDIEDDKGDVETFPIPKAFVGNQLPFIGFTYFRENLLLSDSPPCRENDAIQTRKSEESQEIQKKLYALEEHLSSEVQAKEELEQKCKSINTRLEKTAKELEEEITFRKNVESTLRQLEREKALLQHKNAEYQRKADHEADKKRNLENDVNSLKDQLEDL", "experiment": "ROCK inhibition studies (33P-ATP, Long S6 substrate peptide)", "format": "biochemical", "experimental": "ROCK-II (ROKa) (5–20 mU diluted in 50 mM Tris pH 7.5, 0.1 mM EGTA, 0.1% 2-mercaptoethanol, and 1 mg/mL BSA) was assayed against the Long S6 substrate peptide ([…]) in a final volume of 25.5 μL containing 50 mM Tris pH 7.5, 0.1 mM EGTA, 30 μM Long S6 substrate peptide, 10 mM magnesium acetate, and 0.02 mM [33P-g-ATP] (50–1000 cpm/pmol) and incubated for 30 min at room temperature. Assays were stopped by addition of 5 μL of 0.5 M (3%) orthophosphoric acid and then harvested onto P81 Unifilter plates with a wash buffer of 50 mM orthophosphoric acid."}, "Keap1+/+ MEFs": {"test_system": "Keap1+/+ MEFs", "experiment": "qRT-PCR of NRF2 target genes in wild-type MEFs", "format": "cell-based, mouse", "conditions": "20 μM, 4, 8 and 24 h", "experimental": "Human embryonic kidney (HEK) 293T cells were grown in Dulbecco’s modified Eagle’s medium (DMEM) supplemented with 10% fetal bovine serum and 80 μg/mL gentamycin. Transient transfections were performed with calcium phosphate using reagents from Sigma. The Keap1^–/– mouse embryo fibroblasts (MEFs) and their corresponding wild-type Keap1^+/+ MEFs were kindly provided by Dr. Ken Itoh (Department of Stress Response Science, Center for Advanced Medical Science, Hirosaki University, Japan). MEFs were grown in DMEM supplemented with 10% fetal bovine serum, 1% penicillin/streptomycin, and 2 mm L-glutamine. SH-SY5Y cells were grown in DMEM and Ham’s F12 supplemented with 10% fetal bovine serum (FBS) and 1% penicillin/streptomycin. The medium was changed to serum-free DMEM without antibiotics 16 h before treatments. DMF (cat. no. 242926, Sigma-Aldrich) was used at 20 μM for 16 h.\nTotal RNA extraction, reverse transcription, and quantitative polymerase chain reaction (PCR) were done as detailed in previous articles.[72] Primer sequences are shown in Supporting Information Table S5. Data analysis was based on the ΔΔCT method with normalization of the raw data to housekeeping genes (Applied Biosystems). All PCRs were performed in triplicates."}, "GSK-3β": {"biological_target": "GSK-3β (Homo sapiens, UniProt P49841)", "sequence (P49841 whole entry, species assumed)": "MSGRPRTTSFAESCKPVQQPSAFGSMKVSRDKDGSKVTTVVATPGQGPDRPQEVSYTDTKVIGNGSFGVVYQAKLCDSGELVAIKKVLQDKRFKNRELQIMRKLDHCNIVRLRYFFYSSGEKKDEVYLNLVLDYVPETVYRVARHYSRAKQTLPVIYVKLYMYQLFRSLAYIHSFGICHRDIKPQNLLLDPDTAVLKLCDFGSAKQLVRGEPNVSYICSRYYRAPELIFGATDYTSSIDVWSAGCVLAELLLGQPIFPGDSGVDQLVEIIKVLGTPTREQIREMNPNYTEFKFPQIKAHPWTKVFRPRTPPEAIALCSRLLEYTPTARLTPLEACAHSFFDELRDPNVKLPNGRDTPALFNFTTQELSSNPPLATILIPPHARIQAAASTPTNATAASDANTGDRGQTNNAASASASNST", "experiment": "GSK-3β kinase inhibition", "format": "biochemical"}, "MTT viability assay": {"experiment": "MTT viability assay", "format": "cell-based, human", "conditions": "human, HEK293T cells, HEK293T, 16 h, read-out: Cell viability (MTT)", "experimental": "(§1) HEK293T cells were plated in 24-well culture plates (75,000 cells/well) and incubated in a CO2 incubator. The next day, treatment was given according to the experimental requirement. Sixteen hours later, 50 μL of MTT solutions from the stock (5 mg/mL) was added, and cells were incubated in a CO2 incubator in the dark for 2 h. The medium was removed, and formazan crystals formed by the cells were dissolved using 500 μL of DMSO followed by transfer in 96-well plates. The absorbance was read at a 570 nm wavelength on a multiwell plate reader.[70]"}, "HEK293T cells": {"test_system": "HEK293T cells", "experiment": "MTT viability assay", "format": "cell-based, human", "conditions": "20 µM, Table S3", "experimental": "as §1"}}, "note": "Read-outs that look alike come from different tables or passages of the source.", "data": [{"compound": "O=C(CCc1ccc(O)c(O)c1)N1CCCN(S(=O)(=O)c2cccc3cnccc23)CC1", "note": "[Compound 1d, 3-(3,4-Dihydroxyphenyl)-1-(4-(isoquinolin-5-ylsulfonyl)-1,4-diazepan-1-yl)propan-1-one]", "values": [{"measurement": "EC50", "setting": "[1]; 80% MeOH, 30 min, 517 nm, read-out: Radical scavenging activity EC50 (DPPH method)", "value": 9.68, "unit": "µM"}, {"measurement": "IC50", "setting": "[1]; supplementary CSV", "value": "10.4 ± 0.7", "unit": "µM"}, {"measurement": "ΔTi (± S.E.M.)", "setting": "KEAP1", "value": "+0.2 (± 0.1) °C"}, {"measurement": "NRF2 induction, CD (concentration needed to double luciferase expression)", "setting": "NRF2; HEK293T, 3×ARE-LUC", "value": 1, "unit": "µM"}, {"measurement": "fold induction at 20 µM", "setting": "NRF2; Homo sapiens, 16 h, 20 microM, supplementary CSV, read-out: NRF2 induction @ 20 microM (fold change)", "value": "4.4 ± 0.27"}, {"measurement": "fold induction at 6 µM", "setting": "NRF2; Homo sapiens, HEK-293T, 6 µM, HEK293T, 16 h, read-out: Luciferase assay response", "value": "2.5 ± 0.05"}, {"measurement": "fold induction at 20 µM", "setting": "NRF2; Homo sapiens, HEK-293T, 20 µM, HEK293T, 16 h, read-out: Luciferase assay response", "value": "4.4 ± 0.27"}, {"measurement": "fold induction at 60 µM", "setting": "NRF2; Homo sapiens, HEK-293T, 60 µM, HEK293T, 16 h, read-out: Luciferase assay response", "value": "13.6 ± 1.6"}, {"measurement": "activation of the NRF2 reporter", "setting": "NRF2; in words, 6, 20 and 60 μM", "value": "dose-dependent activation"}, {"measurement": "remaining activity at 10 µM", "setting": "ROCK-II (ROKa); 0.5 h, 10 microM, supplementary CSV, read-out: ROCK2 activity @ 10microM", "value": "14.6 ± 4.1", "unit": "%"}, {"measurement": "IC50", "setting": "ROCK-II (ROKa); Table 3, read-out: ROCK2 inhibition IC50", "value": 0.73, "unit": "µM"}, {"measurement": "ROCK2 inhibition potency compared with fasudil", "setting": "ROCK-II (ROKa); in words", "value": "potency similar to the reference compound"}, {"measurement": "mRNA levels of HMOX1 and NQO1", "setting": "Keap1+/+ MEFs", "value": "increased the mRNA levels"}, {"measurement": "activity as an inhibitor of the kinase GSK-3β", "setting": "GSK-3β", "value": "negative results"}, {"measurement": "viability at 16 h, 20 µM", "setting": "MTT viability assay; 20 μM", "value": "100 ± 1.02", "unit": "%"}, {"measurement": "viability at 16 h, 60 µM", "setting": "MTT viability assay; 60 μM", "value": "103.7 ± 0.837", "unit": "%"}, {"measurement": "MTT (%)", "setting": "HEK293T cells", "value": "< 20", "unit": "%"}]}]}
